In patent US20220363680A1, “PROCESSES FOR THE SYNTHESIS OF VALBENAZINE” (Neurocrine Biosciences, Inc., priority 2019, published 2022):

Assays:
[1] = Particle size distribution of manufacturing batches of the compound of Formula I; format: physicochemical; conditions: crystalline Form I batches
Description: Manufacturing batches of(2R,3R,11bR)-3-isobutyl-9,10-dimethoxy-2,3,4,6,7,11b-hexahydro-1H-pyrido[2,1-a]isoquinolin-2-yl (S)-2-amino-3-methylbutanoate di(4-methylbenzenesulfonate) (i.e., the compound of Formula I) have been prepared in a similar manner as described herein and have the following particle size distribution characterizations, as shown in Table 3.
Four separate batches of (2R,3R,11bR)-3-Isobutyl-9,10-dimethoxy-2,3,4,6,7,11b-hexahydro-1H-pyrido[2,1-a]isoquinolin-2-yl (S)-2-amino-3-methylbutanoate di(4-methylbenzenesulfonate) were manufactured in a similar manner as described herein (i.e., Example 1) in compliance with applicable cGMPs for GLP use. Certain data are shown below in Table 10 for Example 1, Step E (i.e., Batch 073) and the four batches (i.e., Batches 084, 085, 086, and 087).

[2] = Stability of standard and sample solutions (4 mg/mL) for the HPLC method; format: physicochemical; conditions: 4 mg/mL in DI water:acetonitrile 50:50 v/v, ambient laboratory conditions
Method: Diluent (DI Water:Acetonitrile, 50:50, v/v).
Note: Standard solutions are stable for 4 days at ambient laboratory conditions.
Working Standard Solution (4 mg/mL of compound of Formula I).
Note: Sample solutions are stable for 4 days at ambient laboratory conditions.
Sample Solution (4 mg/mL of compound of Formula I).

[3] = Table 3, listed as Batch 073, di(4-methylbenzenesulfonate)
[4] = Table 3, listed as Batch 084, di(4-methylbenzenesulfonate)
[5] = Table 3, listed as Batch 085, di(4-methylbenzenesulfonate)
[6] = Table 3, listed as Batch 086, di(4-methylbenzenesulfonate)
[7] = Table 3, listed as Batch 087, di(4-methylbenzenesulfonate)
[8] = Table 10, listed as Batch 073, di(4-methylbenzenesulfonate)
[9] = Table 10, listed as Batch 084, di(4-methylbenzenesulfonate)
[10] = Table 10, listed as Batch 085, di(4-methylbenzenesulfonate)
[11] = Table 10, listed as Batch 086, di(4-methylbenzenesulfonate)
[12] = Table 10, listed as Batch 087, di(4-methylbenzenesulfonate)

Question: For `COc1cc2c(cc1OC)[C@H]1C[C@@H](OC(=O)[C@@H](N)C(C)C)[C@H](CC(C)C)CN1CC2` [Compound of Formula I, (2R,3R,11bR)-3-isobutyl-9,10-dimethoxy-2,3,4,6,7,11b-hexahydro-1H-pyrido[2,1-a]isoquinolin-2-yl (S)-2-amino-3-methylbutanoate di(4-methylbenzenesulfonate)], which Particle size distribution, D10 ([1]; Table 3) is on record?
Answer: 3 µm

Question: And the Particle size distribution, D50 [1, 3]?
Answer: 14 µm

Question: What about the Particle size distribution, D90 [1, 3] of the same compound?
Answer: 45 µm

Question: What about the Particle size distribution, D50 [1, 4] of the same compound?
Answer: 13 µm

Question: And the Particle size distribution, D90 [1, 4]?
Answer: 43 µm

Question: And the Particle size distribution, D50 [1, 5]?
Answer: 13 µm

Question: What about the Particle size distribution, D90 [1, 5] of the same compound?
Answer: 44 µm

Question: What about the Particle size distribution, D50 [1, 6] of the same compound?
Answer: 14 µm

Question: What about the Particle size distribution, D90 [1, 6] of the same compound?
Answer: 48 µm

Question: And the Particle size distribution, D50 [1, 7]?
Answer: 13 µm

Question: And the Particle size distribution, D90 [1, 7]?
Answer: 45 µm

Question: What about the “Particle size distribution, D10” value ([1]; Table 10) of the same compound?
Answer: 3 μm

Question: And the “Particle size distribution, D50” value [1, 8]?
Answer: 14 μm

Question: What about the “Particle size distribution, D90” value [1, 8] of the same compound?
Answer: 45 μm

Question: And the “Particle size distribution, D50” value [1, 9]?
Answer: 13 μm

Question: What about the “Particle size distribution, D90” value [1, 9] of the same compound?
Answer: 43 μm

Question: And the “Particle size distribution, D50” value [1, 10]?
Answer: 13 μm

Question: And the “Particle size distribution, D90” value [1, 10]?
Answer: 44 μm

Question: What about the “Particle size distribution, D50” value [1, 11] of the same compound?
Answer: 14 μm

Question: And the “Particle size distribution, D90” value [1, 11]?
Answer: 48 μm

Question: And the “Particle size distribution, D50” value [1, 12]?
Answer: 13 μm

Question: And the “Particle size distribution, D90” value [1, 12]?
Answer: 45 μm

Question: What about the “Time for which solutions are stable” value [2] of the same compound?
Answer: 4 days
